EC50 data for 21 molecules are collected here from patent US10669261B2, “Heteroarylhydroxypyrimidinones as agonists of the APJ receptor” (BRISTOL-MYERS SQUIBB COMPANY, priority 2015, dated 2020).

The assay addresses T1, human APJ receptor (Homo sapiens, UniProt P35414).
T1 construct: expressed in transfected cells
T1 sequence (P35414 1-380): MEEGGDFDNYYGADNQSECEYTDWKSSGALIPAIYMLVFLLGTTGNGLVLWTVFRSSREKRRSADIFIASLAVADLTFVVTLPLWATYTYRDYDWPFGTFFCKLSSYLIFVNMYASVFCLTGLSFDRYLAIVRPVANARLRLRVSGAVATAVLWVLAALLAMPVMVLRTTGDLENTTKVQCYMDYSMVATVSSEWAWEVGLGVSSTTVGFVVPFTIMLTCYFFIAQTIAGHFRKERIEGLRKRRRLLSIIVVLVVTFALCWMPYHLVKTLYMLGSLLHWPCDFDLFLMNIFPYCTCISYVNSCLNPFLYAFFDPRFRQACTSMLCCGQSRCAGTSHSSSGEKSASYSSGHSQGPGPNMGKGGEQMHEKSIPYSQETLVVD
Put plainly: Intracellular cAMP accumulation assay (APJ hcAMP, HTRF). The class given is cell-based. Conditions: HEK293 cells stably expressing human APJ receptor. Here is the method: Intracellular cAMP Accumulation Assay
HEK293 cells stably expressing human APJ receptor were used to assess the activity of compounds. Cultured cells were detached and resuspended in the cAMP Homogeneous Time-Resolved Fluorescence (HTRF) assay buffer (Cisbio cat; #62AM4PEJ). The assay was performed in 384-well assay plates (Perkin-Elmer; cat #6008289) according to assay protocol provided by the manufacturer. Serial dilutions of a compound together with assay buffer containing […] IBMX and 2 μM forskolin were added to each well containing 5,000 cells and incubated for 30 minutes at room temperature. Subsequently, cAMP D2 reagent was added in the lysis buffer followed by the EuK antibody (Cisbio; cat #62AM4PEJ) and incubated for 60 min. The fluorescence emission ratio was measured using fluorometer. The intracellular cAMP concentrations (compound-stimulated inhibition of forskolin-mediated cAMP production) were calculated by extrapolation from a standard curve using known cAMP concentrations. The EC50 values were obtained by fitting the data to a sigmoidal concentration-response curve with variable slope. The maximal achievable inhibition of forskolin-induced cAMP levels (Ymax) for each compound was expressed as relative percentage of inhibition attained using pyroglutamated apelin-13 ((Pyr1)apelin-13) peptide, which was set to 100%.
The examples disclosed below were tested in the APJ in vitro assays described above and were found having human APJ cyclic AMP (hcAMP) activity. The EC50 value of each compound is presented at the end of the example description.
The biological activity of the exemplified compounds of this invention determined by the assay described above is shown at the end of each example.
(In general: Cyclic AMP is a second messenger, typically raised through Gs and lowered through Gi signalling.)

The mark [1] stands for this setting: Table 1, read-out: hAPJ cAMP EC50 Potency range.
[2] abbreviates: inhibition of forskolin-mediated cAMP production, stated at end of example, read-out: Human APJ cAMP Potency Range.

Molecules are shown by their SMILES. Read-outs that look alike come from different tables or passages of the source.

For `CCCCc1nc(=O)c(-c2nnc(Cc3noc4ccccc34)o2)c(O)n1-c1c(OC(C)C)cccc1OC(C)C` [Example 24, 5-[5-(1,2-benzoxazol-3-ylmethyl)-1,3,4-oxadiazol-2-yl]-1-[2,6-bis(propan-2-yloxy)phenyl]-2-butyl-6-hydroxy-1,4-dihydropyrimidin-4-one], the EC50 under setting [1] was 100 to 300 nM. Consider `CCCCc1nc(=O)c(-c2nnc(Cc3csc(C)n3)o2)c(O)n1-c1c(OCC)cccc1OCC` [Example 25, 2-butyl-1-(2,6-diethoxyphenyl)-6-hydroxy-5-{5-[(2-methyl-1,3-thiazol-4-yl)methyl]-1,3,4-oxadiazol-2-yl}-1,4-dihydropyrimidin-4-one], for which the EC50 under setting [1] lay within 0.01 to 10 nM. Same read-out and setting: as for `CCCCc1nc(=O)c(-c2nnc(Cc3ccc(Cl)cc3)o2)c(O)n1-c1c(OCC)cccc1OCC` [Example 26, 2-butyl-5-{5-[(4-chlorophenyl)methyl]-1,3,4-oxadiazol-2-yl}-1-(2,6-diethoxyphenyl)-6-hydroxy-1,4-dihydropyrimidin-4-one], the figure is 0.01 to 10 nM. For the molecule `CCCCc1nc(=O)c(-c2nnc(Cc3noc4ccccc34)o2)c(O)n1-c1c(C2CC2)cccc1C1CC1` [Example 27, 5-(5-(Benzo[d]isoxazol-3-ylmethyl)-1,3,4-oxadiazol-2-yl)-2-butyl-1-(2,6-dicyclopropylphenyl)-6-hydroxypyrimidin-4(1H)-one], the EC50 under setting [2] lay in the range of 0.01 to 10 nM.

Consider `CCCCc1nc(=O)c(-c2nnc(Cc3noc4ccccc34)o2)c(O)n1-c1c(C#N)cccc1C#N` [Example 28, 2-(5-(5-(Benzo[d]isoxazol-3-ylmethyl)-1,3,4-oxadiazol-2-yl)-2-butyl-6-hydroxy-4-oxopyrimidin-1 (4H)-yl)isophthalonitrile], for which the EC50 under setting [2] fell in the range of 10 to 100 nM. On to `CCCCc1nc(=O)c(-c2nnc(Cc3ccc(Cl)cc3)o2)c(O)n1-c1c(OC2CC2)cccc1OC1CC1` [Example 29, 2-butyl-5-(5-(4-chlorobenzyl)-1,3,4-oxadiazol-2-yl)-1-(2,6-dicyclopropoxyphenyl)-6-hydroxypyrimidin-4(1H)-one], for which, under setting [2], the EC50 lay in the range of 10 to 100 nM. For `CCCCc1nc(=O)c(-c2nnc(Cc3noc4ccccc34)o2)c(O)n1-c1c(OC2CC2)cccc1OC1CC1` [Example 30, 5-[5-(1,2-benzoxazol-3-ylmethyl)-1,3,4-oxadiazol-2-yl]-2-butyl-1-(2,6-dicyclopropoxyphenyl)-6-hydroxy-1,4-dihydropyrimidin-4-one], under setting [1], the EC50 was 0.01 to 10 nM. As to `CCCCc1nc(O)c(-c2cnn(Cc3ccccc3)c2)c(=O)n1-c1c(OC)cccc1OC` [Example 31, 5-(1-benzyl-1H-pyrazol-4-yl)-2-butyl-3-(2,6-dimethoxyphenyl)-6-hydroxypyrimidin-4(3H)-one], the EC50 under setting [2] was in the range of 0.01 to 10 nM. In the case of `CCCCc1nc(O)c(-c2cnn(Cc3ccc(Cl)cc3)c2)c(=O)n1-c1c(OC)cccc1OC` [Example 32, 2-butyl-5-{1-[(4-chlorophenyl)methyl]-1H-pyrazol-4-yl}-3-(2,6-dimethoxyphenyl)-6-hydroxy-3,4-dihydropyrimidin-4-one], under setting [1], the EC50 was 0.01 to 10 nM. With `CCOCc1nc(=O)c(-c2nnc(Cc3noc4ccccc34)o2)c(O)n1-c1c(OC)cccc1OC` [Example 33, 5-(5-(benzo[d]isoxazol-3-ylmethyl)-1,3,4-oxadiazol-2-yl)-1-(2,6-dimethoxyphenyl)-6-hydroxy-2-(ethoxymethyl)pyrimidin-4(1H)-one], the EC50 under setting [2] fell in the range of 0.01 to 10 nM. For `COc1cccc(OC)c1-n1c(COC(C)C)nc(=O)c(-c2nnc(Cc3noc4ccccc34)o2)c1O` [Example 34, 5-[5-(1,2-benzoxazol-3-ylmethyl)-1,3,4-oxadiazol-2-yl]-1-(2,6-dimethoxyphenyl)-6-hydroxy-2-[(propan-2-yloxy)methyl]-1,4-dihydropyrimidin-4-one], the EC50 under setting [1] was in the range of 0.01 to 10 nM. In the case of `CCOCc1nc(=O)c(-c2nnc(Cc3noc4ccccc34)o2)c(O)n1-c1c(CC)cccc1CC` [Example 35, 5-[5-(1,2-benzoxazol-3-ylmethyl)-1,3,4-oxadiazol-2-yl]-1-(2,6-diethylphenyl)-2-(ethoxymethyl)-6-hydroxy-1,4-dihydropyrimidin-4-one], under setting [1], the EC50 was 0.01 to 10 nM. For the molecule `COc1cccc(OC)c1-n1c(COC(C)C)nc(=O)c(-c2nnc(Cc3ccc(Cl)cc3)o2)c1O` [Example 36, 5-{5-[(4-chlorophenyl)methyl]-1,3,4-oxadiazol-2-yl}-1-(2,6-dimethoxyphenyl)-6-hydroxy-2-[(propan-2-yloxy)methyl]-1,4-dihydropyrimidin-4-one], under setting [1], the EC50 lay within 0.01 to 10 nM. Same read-out and setting: the value for `CCOCc1nc(=O)c(-c2nnc(Cc3ccc(Cl)cc3)o2)c(O)n1-c1c(CC)cccc1CC` [Example 37, 5-{5-[(4-chlorophenyl)methyl]-1,3,4-oxadiazol-2-yl}-1-(2,6-diethylphenyl)-2-(ethoxymethyl)-6-hydroxy-1,4-dihydropyrimidin-4-one] was 0.01 to 10 nM; that for `CCOCc1nc(=O)c(-c2nnc(Cc3ccc(Cl)c(F)c3)o2)c(O)n1-c1c(OC)cccc1OC` [Example 38, 5-{5-[(4-chloro-3-fluorophenyl)methyl]-1,3,4-oxadiazol-2-yl}-1-(2,6-dimethoxyphenyl)-2-(ethoxymethyl)-6-hydroxy-1,4-dihydropyrimidin-4-one] was 0.01 to 10 nM; that for `CCOCc1nc(=O)c(-c2nnc(Cc3csc(-c4ccccc4)n3)o2)c(O)n1-c1c(OC)cccc1OC` [Example 39, 1-(2,6-dimethoxyphenyl)-2-(ethoxymethyl)-6-hydroxy-5-{5-[(2-phenyl-1,3-thiazol-4-yl)methyl]-1,3,4-oxadiazol-2-yl}-1,4-dihydropyrimidin-4-one] was 10 to 100 nM. For `CCOCc1nc(=O)c(-c2nnc(Cc3ccc(Cl)cc3)o2)c(O)n1-c1c(OC)cccc1OC` [Example 40, 5-{5-[(4-chlorophenyl)methyl]-1,3,4-oxadiazol-2-yl}-1-(2,6-dimethoxyphenyl)-2-(ethoxymethyl)-6-hydroxy-1,4-dihydropyrimidin-4-one], the EC50 under setting [1] lay within 0.01 to 10 nM. On the same count and under the same terms, the value for `CC(C)OCc1nc(=O)c(-c2nnc(Cc3noc4ccccc34)o2)c(O)n1-c1c(C2CC2)cccc1C1CC1` [Example 41, 5-[5-(1,2-benzoxazol-3-ylmethyl)-1,3,4-oxadiazol-2-yl]-1-(2,6-dicyclopropylphenyl)-6-hydroxy-2-[(propan-2-yloxy)methyl]-1,4-dihydropyrimidin-4-one] was 0.01 to 10 nM. As to `COc1cccc(OC)c1-n1c(CCC2CC2)nc(=O)c(-c2nnc(Cc3noc4ccccc34)o2)c1O` [Example 42, 5-(5-(benzo[d]isoxazol-3-ylmethyl)-1,3,4-oxadiazol-2-yl)-2-(2-cyclopropylethyl)-1-(2,6-dimethoxyphenyl)-6-hydroxypyrimidin-4(1H)-one], the EC50 under setting [2] was in the range of 0.01 to 10 nM.

In the case of `COc1cccc(OC)c1-n1c(CCC2CC2)nc(=O)c(-c2nnc(CN3CCCC3=O)o2)c1O` [Example 43, 2-(2-cyclopropylethyl)-1-(2,6-dimethoxyphenyl)-6-hydroxy-5-{5-[(2-oxopyrrolidin-1-yl)methyl]-1,3,4-oxadiazol-2-yl}-1,4-dihydropyrimidin-4-one], under setting [1], the EC50 is 0.01 to 10 nM. For the molecule `COc1cccc(OC)c1-n1c(CCC2CC2)nc(=O)c(-c2nnc(Cc3csc(C)n3)o2)c1O` [Example 44, 2-(2-cyclopropylethyl)-1-(2,6-dimethoxyphenyl)-6-hydroxy-5-{5-[(2-methyl-1,3-thiazol-4-yl)methyl]-1,3,4-oxadiazol-2-yl}-1,4-dihydropyrimidin-4-one], the EC50 under setting [1] lay in the range of 0.01 to 10 nM.
